Data reported in publication PMC3562233 (PLoS ONE, 2013).

How the values were obtained:
[1] = target: T1, V27A M2 (Influenza A virus, UniProt P0DOF5, V27A); type: cell-based
[2] = target: T2, S31N M2 (Influenza A virus, UniProt P0DOF5, S31N); type: cell-based
[3] = target: T2, S31N M2; type: cell-based, influenza A virus (Udorn strain)
[4] = target: T1, V27A M2; type: cell-based, influenza A virus (Udorn strain)

In the case of O=[N+]([O-])c1ccc(CNC23CC4CC(CC(C4)C2)C3)cc1 [Compound 4, 1-adamantyl (4-nitrobenzyl)amine], the “% inhibition at 100 µM in TEVC V27A” value [1] is reported as 9.7 ± 0.3% and the “% inhibition at 100 µM in TEVC S31N” value [2] is reported as 15.9 ± 0.2%.
NC12CC3CC(CC(C3)C1)C2 [Amantadine, reference compound] was tested, and the “activity against S31N mutant in the yeast assay” value [3] was “did not increase the growth” and the “activity against V27A mutant in the yeast assay” value [4] was “did not increase the growth”.
For NC1CCC2(CC1)C1CC3CC(C1)CC2C3 (stereo not drawn) [spiroadamantane amine], the “concentration that clearly increased growth of the V27A strain” value [4] was ≥ 0.01 µM.
For CC1(C)C2CCC1(C)C(N1CCNCC1)C2.Cl.Cl (stereo not drawn) [Compound 16, 1-(1,7,7-trimethylbicyclo[2.2.1]hept-2-yl)piperazine dihydrochloride], the “activity against S31N mutant in the yeast assay” value [3] was “inactive”.
